Data taken from ChEMBL document CHEMBL1148381, “Application of CoMFA and CoMSIA 3D-QSAR and docking studies in optimization of mercaptobenzenesulfonamides as HIV-1 integrase inhibitors” (J Med Chem, 2004).

Assays:
[1] = molecular target: T1, Human immunodeficiency virus type 1 integrase (Human immunodeficiency virus 1, UniProt Q7ZJM1); experiment: Inhibitory activity against 3' processing by HIV integrase
[2] = molecular target: T1, Human immunodeficiency virus type 1 integrase; experiment: Inhibitory activity against DNA strand transfer by HIV integrase

T1 sequence (Q7ZJM1 whole entry): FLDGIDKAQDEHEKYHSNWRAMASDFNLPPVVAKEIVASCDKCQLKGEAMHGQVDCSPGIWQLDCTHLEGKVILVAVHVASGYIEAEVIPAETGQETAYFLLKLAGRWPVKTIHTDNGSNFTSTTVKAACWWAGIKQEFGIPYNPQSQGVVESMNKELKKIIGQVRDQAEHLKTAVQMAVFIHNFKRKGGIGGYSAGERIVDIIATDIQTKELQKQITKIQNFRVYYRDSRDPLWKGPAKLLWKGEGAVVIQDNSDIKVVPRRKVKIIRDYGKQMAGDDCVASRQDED

| SMILES | IC50 [1] | IC50 [2] |
| --- | --- | --- |
| O=C(Nc1ccccc1)c1cc(S(=O)(=O)Nc2nncn2-c2ccc(Cl)cc2)c(S)cc1Cl | 6.03 µM | 12 µM |
| Cc1cnc(NS(=O)(=O)c2ccc(/N=N/c3cc4ccccc4cc3O)cc2)s1 | 38.9 µM | 50.1 µM |
| Cc1ccc(Nc2n[nH]c(NS(=O)(=O)c3cc(C)c(Cl)cc3S)n2)cc1 | 22.4 µM | 24 µM |
| O=C(Nc1ccc(Cl)cc1)c1cc(S(=O)(=O)Nc2nncn2-c2ccc(F)cc2)c(S)cc1Cl | 37.2 µM | 37.2 µM |
| Cc1cc(S(=O)(=O)Nc2nc(Nc3ccc(Cl)cc3)nn2C)c(S)cc1Cl | 16.2 µM | 17.8 µM |
| Cc1cc(S(=O)(=O)Nc2nnc3c(C(F)(F)F)cc(Cl)cn23)c(S)cc1Cl | 10.7 µM | 24 µM |
| COc1cc(Nc2nnc(NS(=O)(=O)c3cc(C)c(Cl)cc3S)[nH]2)cc(OC)c1OC | 15.5 µM | 16.6 µM |
| Cc1ccc(-n2cnnc2NS(=O)(=O)c2cc(C(=O)Nc3ccccc3)c(Cl)cc2S)cc1 | 6.03 µM | 10 µM |
| O=S(=O)(Nc1nnc2n1-c1ccccc1CC2)c1ccc(Cl)cc1S | 21.9 µM | 19.5 µM |
| Cc1cc2c(cc1Cl)SC(C(C#N)C(=O)c1ccccc1)NS2(=O)=O (centres undefined) | 200 µM | 112 µM |
| CCCCn1cnnc1NS(=O)(=O)c1cc(C(=O)Nc2ccc(Cl)cc2)c(Cl)cc1S | 36.3 µM | 43.7 µM |
| CC(=O)Oc1cc(S(=O)(=O)Nc2nnc(Nc3ccc(C)cc3)[nH]2)c(S)cc1Cl | 7.59 µM | 10 µM |
| Cc1cc2c(cc1Cl)SC(C(C#N)C#N)NS2(=O)=O (centres undefined) | 708 µM | 603 µM |
| O=C(CC(Sc1[nH]cnc2ncnc1-2)Sc1[nH]cnc2ncnc1-2)Nc1ccc(S(=O)(=O)Nc2ccc(/N=N/c3ccccc3)cc2)cc1 | 141 µM | 112 µM |
| Cc1cc(C(F)(F)F)cc(-n2nc(NS(=O)(=O)c3cc(C)c(Cl)cc3S)nc2N)n1 | 9.33 µM | 6.31 µM |
| CC1=NNC(=O)C1/N=N/c1ccc(S(=O)(=O)Nc2nccs2)cc1 (centres undefined) | 70.8 µM | 61.7 µM |
| Cc1ccc(NC(=O)c2cc(S(=O)(=O)Nc3nncn3CC(C)C)c(S)cc2Cl)cc1 | 75.9 µM | 100 µM |
| Cc1cc(S(=O)(=O)Nc2nc3ccccc3[nH]2)c(S)cc1Cl | 38.9 µM | 43.7 µM |
| Cc1cc(S(=O)(=O)Nc2nc3ccccc3nc2-c2cccc([N+](=O)[O-])c2)c(S)cc1Cl | 15.1 µM | 7.94 µM |
| Cc1cc(S(=O)(=O)Nc2nc(Nc3ccccc3)nn2C)c(S)cc1Cl | 27.5 µM | 15.8 µM |
| O=S(=O)(Nc1nnc2c3ccccc3cnn12)c1ccc(Cl)cc1S | 28.8 µM | 38.9 µM |
| Cc1cc(S(=O)(=O)Nc2nnc(Nc3ccccc3)[nH]2)c(S)cc1Cl | 16.2 µM | 12.6 µM |
| Cc1cc(S(=O)(=O)Nc2n[nH]c(-c3ccc(Cl)cn3)n2)c(S)cc1Cl | 8.91 µM | 10.2 µM |
| Cc1cc2nc3nc(N)nc(NS(=O)(=O)c4cc(C)c(Cl)cc4S)n3c2cc1C | 5.5 µM | 4.27 µM |

| SMILES | IC50 [1] | IC50 [2] |
| --- | --- | --- |
| Cc1cc(S(=O)(=O)Nc2nc3ccccc3nc2-c2ccc(Br)cc2)c(S)cc1Cl | 12.3 µM | 7.94 µM |
| Cc1cc(S(=O)(=O)Nc2nnc3cc(C(F)(F)F)cc(C)n23)c(S)cc1Cl | 18.6 µM | 11 µM |
| Cc1cc2c(cc1Cl)SC(C1C(=O)NC(=S)NC1=O)NS2(=O)=O (centres undefined) | 60.3 µM | 50.1 µM |
| O=C(Nc1ccc(F)cc1)c1cc(S(=O)(=O)Nc2nncn2-c2ccc(F)cc2)c(S)cc1Cl | 79.4 µM | 37.2 µM |
| CCOC(=O)C(C#N)C1NS(=O)(=O)c2cc(C)c(Cl)cc2S1 (centres undefined) | 331 µM | 112 µM |
| Cc1cc(S(=O)(=O)Nc2nnc3ccccn23)c(S)cc1Cl | 123 µM | 110 µM |
| O=C1NC(=S)SC1NS(=O)(=O)c1ccc(-c2ncccn2)cc1 (centres undefined) | 28.8 µM | 14.1 µM |
| Cc1cc(S(=O)(=O)Nc2nnc3cnc4ccccc4n23)c(S)cc1Cl | 31.6 µM | 8.32 µM |
| COc1cccc(Nc2n[nH]c(NS(=O)(=O)c3cc(C)c(Cl)cc3S)n2)c1 | 6.31 µM | 20.9 µM |
| CCCn1cnnc1NS(=O)(=O)c1cc(C(=O)Nc2ccc(C)cc2)c(Cl)cc1SCC(=O)O | 43.7 µM | 43.7 µM |
| Cc1cc2c(cc1Cl)SC(C1C(=O)NC(=O)NC1=O)NS2(=O)=O (centres undefined) | 60.3 µM | 60.3 µM |
| Cc1cc(S(=O)(=O)NC(=NN)Nc2ccc(Cl)cc2)c(S)cc1Cl | 3.55 µM | 3.55 µM |
| Cc1ccc(NC(=O)c2cc(S(=O)(=O)Nc3nncn3Cc3ccccc3)c(S)cc2Cl)cc1 | 8.91 µM | 7.94 µM |
| CCC(C)n1cnnc1NS(=O)(=O)c1cc(C(=O)Nc2ccc(C)cc2)c(Cl)cc1S (centres undefined) | 200 µM | 112 µM |
| Cc1cc(S(=O)(=O)Nc2nc(N)n(-c3ccccc3)n2)c(S)cc1Cl | 10.7 µM | 13.2 µM |
| CC(C)Cn1cnnc1NS(=O)(=O)c1cc(C(=O)Nc2ccc(Cl)cc2)c(Cl)cc1S | 38 µM | 39.8 µM |
| CCCn1cnnc1NS(=O)(=O)c1cc(C(=O)Nc2ccc(C)cc2)c(Cl)cc1S | 40.7 µM | 39.8 µM |
| CCCCn1cnnc1NS(=O)(=O)c1cc(C(=O)NCc2ccccc2)c(Cl)cc1S | 89.1 µM | 70.8 µM |
| Cc1cc(S(=O)(=O)Nc2nnc3c4scc(C)c4ncn23)c(S)cc1Cl | 9.33 µM | 7.41 µM |
| Cc1cc(S(=O)(=O)Nc2nc(N)nc(N(C)C)n2)c(S)cc1Cl | 77.6 µM | 41.7 µM |
| CCCCn1cnnc1NS(=O)(=O)c1cc(C(=O)Nc2ccc(C)cc2)c(Cl)cc1S | 60.3 µM | 33.9 µM |
| Cc1cc(S(=O)(=O)Nc2nc(N)n(-c3ccccn3)n2)c(S)cc1Cl | 14.5 µM | 22.9 µM |
| Cc1cc(S(=O)(=O)NC(=NN)NNc2cccc(C(F)(F)F)n2)c(S)cc1Cl | 87.1 µM | 100 µM |
| Cc1cc(S(=O)(=O)Nc2nnc3ccc4ccccc4n23)c(S)cc1Cl | 12.9 µM | 7.41 µM |

| SMILES | IC50 [1] | IC50 [2] |
| --- | --- | --- |
| O=C(Nc1ccccc1)c1cc(S(=O)(=O)Nc2nncn2-c2ccc(F)cc2)c(S)cc1Cl | 45.7 µM | 50.1 µM |
| Cc1ccc(Nc2nc(NS(=O)(=O)c3cc(C)c(Cl)cc3S)n(C)n2)cc1 | 23.4 µM | 19.1 µM |
| O=S(=O)(Nc1nnc2c3ccccc3ccn12)c1ccc(F)cc1S | 51.3 µM | 47.9 µM |
| Cc1ccc(-n2cnnc2NS(=O)(=O)c2cc(C(=O)Nc3ccc(Cl)cc3)c(Cl)cc2S)cc1 | 3.98 µM | 3.98 µM |
| Cc1cc(S(=O)(=O)Nc2nnc3c(Cl)cc(C(F)(F)F)cn23)c(S)cc1Cl | 17.8 µM | 20.9 µM |
| Cc1cc(S(=O)(=O)NC2=NCCCN2)c(S)cc1Cl | 148 µM | 145 µM |
| Cc1cc(S(=O)(=O)Nc2nnc3c4ccccc4ccn23)c(S)cc1Cl | 13.2 µM | 10.7 µM |
| Cc1cc(S(=O)(=O)Nc2nc3ccccc3nc2-c2ccc(Cl)cc2)c(S)cc1Cl | 20 µM | 12 µM |
| Cc1ccnc(NS(=O)(=O)c2ccc(/N=N/c3cc4ccccc4c(C(=O)O)c3O)cc2)n1 | 19.5 µM | 32.4 µM |
| CC(=O)C(/N=N/c1ccc(S(=O)(=O)Nc2ccccn2)cc1)C(=O)Nc1ccccc1C (centres undefined) | 66.1 µM | 72.4 µM |
| CC1N=NC(c2ccc(S(=O)(=O)NC3SC(=S)NC3=O)cc2)S1 (centres undefined) | 24 µM | 19.1 µM |
| COc1ccc(Nc2n[nH]c(NS(=O)(=O)c3cc(C)c(Cl)cc3S)n2)cc1 | 15.5 µM | 14.1 µM |
| O=S(=O)(Nc1ccccn1)c1ccc(/N=N/c2cnc(O)c(O)c2)cc1 | 60.3 µM | 58.9 µM |
| CCN(c1ccccc1)c1nc(N)nc(NS(=O)(=O)c2cc(C)c(Cl)cc2S)n1 | 17.4 µM | 24.5 µM |
| Cc1cc(S(=O)(=O)Nc2nnc3c4c(C)csc4ncn23)c(S)cc1Cl | 3.63 µM | 3.47 µM |
| CCCCn1cnnc1NS(=O)(=O)c1cc(C(N)=O)c(Cl)cc1SCC(=O)O | 417 µM | 417 µM |
| O=S(=O)(Nc1nccs1)c1ccc(/N=N/c2cnc(O)c(O)c2)cc1 | 22.9 µM | 20.9 µM |
| COC(=O)CSc1cc(Cl)c(C)cc1S(=O)(=O)Nc1nnc(N)[nH]1 | 200 µM | – |
| CC1=NN(c2ccccc2)C(=O)C1/N=N/c1ccc(S(=O)(=O)Nc2scc(C)c2C)cc1 (centres undefined) | 129 µM | 107 µM |
| O=C(O)c1cc2ccccc2c(/N=N/c2ccc(S(=O)(=O)Nc3nccs3)cc2)c1O | 21.4 µM | 42.7 µM |
| Cc1cc(S(=O)(=O)Nc2nc(N)nc3nc4ccccc4n23)c(S)cc1Cl | 9.77 µM | 7.76 µM |
| NS(=O)(=O)c1ccc(/N=N/C2Sc3nc4ccccc4n3C2=O)cc1 (centres undefined) | 209 µM | 126 µM |
